ChEMBL document CHEMBL1132946 (J Med Chem, 2000)

Tests used:
Adenosine receptor A3 = biological target: T1, Adenosine receptor A3 (Rattus norvegicus, UniProt P28647); assay: Ability to displace the specific binding of [3H](R)-PIA to adenosine A3 receptor from rat testis membranes; format: cell membranes, Membrane
T1 sequence (P28647 whole entry): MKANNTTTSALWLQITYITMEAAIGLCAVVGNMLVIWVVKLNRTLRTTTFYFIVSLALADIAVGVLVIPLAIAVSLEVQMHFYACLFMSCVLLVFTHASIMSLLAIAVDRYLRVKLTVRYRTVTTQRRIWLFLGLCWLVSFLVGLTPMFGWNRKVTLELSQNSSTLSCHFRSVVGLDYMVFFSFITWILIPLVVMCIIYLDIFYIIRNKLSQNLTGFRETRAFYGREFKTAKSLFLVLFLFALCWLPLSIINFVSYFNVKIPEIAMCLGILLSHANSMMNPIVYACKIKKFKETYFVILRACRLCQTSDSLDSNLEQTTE

Adenosine receptor A1 [1] = biological target: T2, Adenosine receptor A1 (Bos taurus, UniProt P28190); assay: biochemical
T2 sequence (P28190 whole entry): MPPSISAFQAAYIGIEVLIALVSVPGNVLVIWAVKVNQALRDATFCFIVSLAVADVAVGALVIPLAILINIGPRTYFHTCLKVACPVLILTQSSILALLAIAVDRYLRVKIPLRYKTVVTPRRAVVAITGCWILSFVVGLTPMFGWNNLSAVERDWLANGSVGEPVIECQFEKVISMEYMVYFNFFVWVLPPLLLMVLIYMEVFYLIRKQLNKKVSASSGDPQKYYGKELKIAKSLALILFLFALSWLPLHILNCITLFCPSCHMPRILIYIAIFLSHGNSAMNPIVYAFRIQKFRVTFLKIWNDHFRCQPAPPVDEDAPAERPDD

[2] = Selectivity, ratio of affinity towards adenosine A3 to A1
Bos taurus [3] = organism: Bos taurus; assay: Selectivity, ratio of affinity towards adenosine A3 to A2A
[4] = biological target: Adenosine receptor A2a (Bos taurus); assay: biochemical
Bos taurus [5] = organism: Bos taurus; assay: Selectivity, ratio of affinity towards adenosine A2A to A1
Adenosine receptor A1 [6] = biological target: T2, Adenosine receptor A1; assay: Displacement of [3H]CHA from A1 Adenosine receptor of Bovine brain cortical membranes

Row | Structure (SMILES) | Ki (Adenosine receptor A3) [nM] | Ki (Adenosine receptor A1 [1]) [nM] | Selectivity [2] | Selectivity (Bos taurus [3]) | Ki [4] [nM] | Selectivity (Bos taurus [5]) | Ki (Adenosine receptor A1 [6]) [nM]
1 | O=c1ccc2c(O)cc(-c3ccccc3)nc2[nH]1 | > 10000 | > 10000 |  |  |  |  | 
2 | Cn1c(=O)ccc2c(O)cc(-c3ccccc3)nc21 | > 10000 | 4900 |  |  |  |  | 
3 | CCOC(=O)N1CCN(c2cc(-c3ccccc3)nc3nc(C)ccc23)CC1 | > 10000 | 1200 |  |  |  |  | 
4 | Cc1ccc2c(Oc3ccccc3)cc(-c3ccccc3)nc2n1 | > 10000 |  |  |  |  |  | 
5 | CCCn1c(=O)c2[nH]c(-c3ccc(OCC(=O)NCCN)cc3)nc2n(CCC)c1=O [XANTHINE AMINE CONGENER] | 418 | 1.3 |  |  |  |  | 
6 | Cc1ccc2c(NC3CCCCC3)cc(-c3ccccc3)nc2n1 | > 10000 | 28 |  |  |  |  | 
7 | Cc1ccc2c(N)cc(-c3ccccc3)nc2n1 | > 10000 | 17 |  |  |  |  | 
8 | CCn1c(-c2ccccc2)cc(=O)c2ccc(C)nc21 | > 10000 | 450 |  |  |  |  | 
9 | Cc1ccc2c(O)cc(-c3ccc(F)cc3)nc2n1 | 6100 | 5.3 |  |  |  |  | 
10 | Oc1cc(-c2ccccc2)nc2ncccc12 | 3000 | 16 |  |  |  |  | 
11 | Cc1ccc2c(O)cc(-c3ccccc3F)nc2n1 | 4600 | 11 | 418 | 10 | 470 | 43 | 
12 | COc1ccc2c(O)cc(-c3ccccc3)nc2n1 | > 10000 | 1.6 |  |  |  |  | 
13 | COc1cc(-c2ccccc2)nc2c1ccc(=O)n2C | > 10000 | 1300 |  |  |  |  | 
14 | Cc1ccc2c(N(C)C)cc(-c3ccccc3)nc2n1 | > 10000 | 550 |  |  |  |  | 
15 | Cc1ccc2c(NN)cc(-c3ccccc3)nc2n1 | > 10000 | 100 |  |  |  |  | 
16 | Cc1ccc2c(O)cc(-c3ccccc3)nc2n1 | 8800 | 5.3 | 1660 | 19 | 460 | 87 | 
17 | Cc1ccc2c(N3CCNCC3)cc(-c3ccccc3)nc2n1 | > 10000 | 8700 |  |  |  |  | 
18 | CCOc1ccc2c(O)cc(-c3ccccc3)nc2n1 | > 10000 | 5.2 | > 1920 |  | > 10000 | > 1920 | 
19 | Oc1cc(-c2ccccc2)nc2nc(Cl)ccc12 | 2100 | 0.15 |  |  |  |  | 
20 | Oc1cc(-c2ccccc2)nc2nc(Br)ccc12 | 2100 | 0.7 |  |  |  |  | 
21 | Cc1ccc2c(S)cc(-c3ccccc3)nc2n1 | > 10000 | 80 |  |  |  |  | 
22 | Cc1ccc2c(Cl)cc(-c3ccccc3)nc2n1 | > 10000 |  | > 10 |  | > 10000 | > 10 | 1000
23 | Cc1ccc2c(O)cc(-c3ccc([N+](=O)[O-])cc3)nc2n1 | > 10000 | 9.9 |  |  |  |  | 
24 | COc1cc(-c2ccccc2)nc2nc(C)ccc12 | > 10000 | 6000 |  |  |  |  | 
25 | Cc1ccc2ccc(-c3ccccc3)nc2n1 | > 10000 | 6900 |  |  |  |  | 
26 | OC[C@H]1O[C@@H](n2cnc3c(NC4CCCCC4)ncnc32)[C@H](O)[C@@H]1O | 25 | 1.3 |  |  |  |  | 
27 | Oc1cc(-c2ccccc2)nc2nc(F)ccc12 | > 10000 | 4.1 | > 2440 | > 59 | 170 | 41 | 
28 | Oc1cc(-c2ccccc2)nc2nc(Oc3ccccc3)ccc12 | > 10000 | 26 |  |  |  |  | 
29 | Cc1ccc2c(N=[N+]=[N-])cc(-c3ccccc3)nc2n1 | > 10000 | > 10000 |  |  | > 10000 |  | 
30 | Nc1ccc2c(O)cc(-c3ccccc3)nc2n1 | > 10000 | 5.3 |  |  |  |  | 
